{
  "source": "patent US9550756B2",
  "about": "“Pyridazinone compounds as phosphodiesterase inhibitors and methods of treating disorders” (Takeda Pharmaceutical Company Limited, priority 2009, dated 2017)",
  "key": {"[1]": {"test_system": "Male ICR mice", "experiment": "Improvement of MK-801-induced prepulse inhibition (PPI) deficits", "type": "in vivo", "settings": "0.3 mg/kg, MK-801 0.3 mg/kg s.c., FIG. 3", "description": "Male ICR mice were supplied by CLEA Japan, Inc (Japan). After arrival to the vivarium, animals were allowed a minimum of 1 week for acclimation. They were housed under a 12:12-h light/dark cycle in a temperature- and humidity-controlled laboratory and allowed food and water ad libitum. The care and use of the animals and the experimental protocols used in this research were approved by the Experimental Animal Care and Use Committee of Takeda Pharmaceutical Company, Ltd (Osaka, Japan).\nThe compounds were suspended in 0.5% methylcellulose in saline or distilled water, and administered by intraperitoneally (i.p.) or orally (p.o.), respectively. Methamphetamine (Dainippon Sumitomo Pharma Co., Ltd.) and MK-801 (Sigma-Aldrich, St Louis, Mo.) were dissolved in saline, and administered subcutaneously (s.c.). […]\nPPI is a measure of sensorimotor gating and is one of a few neuropsychological measures in which humans and rodents can be evaluated in a similar fashion (Psychopharmacology (Berl) 2001, vol. 156: 117-154). We evaluated whether compound could reverse PPI deficits induced by MK-801 using male ICR mice. […] Placement of mice inside the cylinders allowed the whole-body startle responses induced by the acoustic stimuli to be measured via the transduction of movement into analog signals by a piezoelectric unit attached to the platform. […]"}},
  "data": [
    {"smiles": "O=c1ccn(-c2cccc(C(F)(F)F)c2)nc1-c1ccnn1-c1ccc(Cl)cc1", "note": "[Example 3, 3-[1-(4-Chlorophenyl)-1H-pyrazol-5-yl]-1-[3-(trifluoromethyl)phenyl]pyridazin-4(1H)-one]", "values": [
      {"measurement": "melting point", "value": "166 to 167", "unit": "°C"}
    ]},
    {"smiles": "O=c1ccn(-c2ccncc2)nc1-c1ccnn1-c1ccccc1", "note": "[Example 31, 3-(1-Phenyl-1H-pyrazol-5-yl)-1-pyridin-4-ylpyridazin-4(1H)-one]", "values": [
      {"measurement": "melting point", "value": "202 to 203", "unit": "°C"}
    ]},
    {"smiles": "CC(C)n1nccc1-c1nn(-c2cccc(C(F)(F)F)c2)ccc1=O", "note": "[Example 33, 3-[1-(1-Methylethyl)-1H-pyrazol-5-yl]-1-[3-(trifluoromethyl)phenyl]pyridazin-4(1H)-one]", "values": [
      {"measurement": "melting point", "value": "183 to 184", "unit": "°C"}
    ]},
    {"smiles": "CC(C)Cn1nccc1-c1nn(-c2cccc(C(F)(F)F)c2)ccc1=O", "note": "[Example 34, 3-[1-(2-Methylpropyl)-1H-pyrazol-5-yl]-1-[3-(trifluoromethyl)phenyl]pyridazin-4(1H)-one]", "values": [
      {"measurement": "melting point", "value": "120 to 121", "unit": "°C"}
    ]},
    {"smiles": "O=c1ccn(-c2cccc(C(F)(F)F)c2)nc1-c1ccnn1-c1ccccn1", "note": "[Example 35, 3-(1-Pyridin-2-yl-1H-pyrazol-5-yl)-1-[3-(trifluoromethyl)phenyl]pyridazin-4(1H)-one]", "values": [
      {"measurement": "melting point", "value": "189 to 190", "unit": "°C"}
    ]},
    {"smiles": "O=c1ccn(-c2cccc(Oc3nc4ccccc4[nH]3)c2)nc1-c1ccnn1-c1ccccc1", "note": "[Example 37, 1-[3-(1H-Benzimidazol-2-yloxy)phenyl]-3-(1-phenyl-1H-pyrazol-5-yl)pyridazin-4(1H)-one]", "values": [
      {"measurement": "melting point", "value": "149 to 150", "unit": "°C"}
    ]},
    {"smiles": "O=c1ccn(-c2cccc(C(F)(F)F)c2)nc1-c1ncnn1-c1ccccc1", "note": "[Example 42, 3-(1-Phenyl-1H-1,2,4-triazol-5-yl)-1-[3-(trifluoromethyl)phenyl]pyridazin-4(1H)-one]", "values": [
      {"measurement": "melting point", "value": "167 to 168", "unit": "°C"}
    ]},
    {"smiles": "O=c1c(OC(F)F)cn(-c2cccc(C(F)(F)F)c2)nc1-c1ccnn1-c1ccccc1", "note": "[Example 62, 5-(Difluoromethoxy)-3-(1-phenyl-1H-pyrazol-5-yl)-1-[3-(trifluoromethyl)phenyl]pyridazin-4(1H)-one]", "values": [
      {"measurement": "melting point", "value": "132 to 134", "unit": "°C"}
    ]},
    {"smiles": "O=c1c(O)cn(-c2ccccc2F)nc1-c1ccnn1-c1ccccc1", "note": "[Example 63, 1-(2-Fluorophenyl)-5-hydroxy-3-(1-phenyl-1H-pyrazol-5-yl)pyridazin-4(1H)-one]", "values": [
      {"measurement": "melting point", "value": "218 to 220", "unit": "°C"}
    ]},
    {"smiles": "CC(C)n1cc(-c2nn(-c3cccc(C(F)(F)F)c3)ccc2=O)c(-c2ccccc2)n1", "note": "[Example 77, 3-[1-(1-Methylethyl)-3-phenyl-1H-pyrazol-4-yl]-1-[3-(trifluoromethyl)phenyl]pyridazin-4(1H)-one]", "values": [
      {"measurement": "melting point", "value": "138 to 140", "unit": "°C"}
    ]},
    {"smiles": "Cc1nc2n(c(=O)c1CCN1CCC(c3noc4cc(F)ccc34)CC1)CCCC2", "note": "[Risperidone]", "values": [
      {"measurement": "MK-801-induced PPI deficits", "setting": "[1]", "value": "significantly reversed"}
    ]}
  ]
}
